Measurements taken from US20240158754A1, “REDUCING HIGH MANNOSE GLYCAN PROTEIN EXPRESSION USING GUANOSINE 5'-MONOPHOSPHATE” (MERCK SHARP & DOHME LLC, priority 2021, published 2024).
“Also recorded” adds a separate entry of the source.

Assays:
Format in all cases: cell-based, Chinese hamster
[1] = test system: recombinant CHO cell line expressing mAb B; assay: 10-day fed-batch assay of eighteen components (Example 1)
Procedure: (§1) Experiment was executed by dividing into 6-blocks. In each experiment block, 3 unique test components were assessed and control conditions with no added test component were included for all three cell lines. Cells were cultured in Merck proprietary chemically defined media in increasing volume to obtain sufficient number of cells for inoculation. […] Merck proprietary chemically defined nutrient feed media were added to all the cultures on day 3, day 6, and day 8. On Day 6, cells from both 1 L flasks for each cell line were pooled and then aliquoted in 125 mL Erlenmeyer flasks with 30 mL working volume, respectively. Stock solutions for each of the tested component were prepared as defined in Table 1 below, and all components were ordered from Sigma Aldrich (St. Louis, MO). Component 6 is GMP. All solutions were prepared in purified water. For each cell line, components were added to the cultures at final concentration at a lower and higher concentrations as per Table 1, respectively, on day 6 of the fed-batch culture. […] A control condition with no added test component was also created for each cell line. All conditions were run with two replicates. All cultures were harvested on day 10.
(§2) Cell culture parameters were analyzed on day 0, 3, 6, 8 and 10, and the corresponding spent medium supernatants were evaluated for antibody titer, charge variants and glycan analysis on day 10 to assess the effect of added components on cell growth, viability, titer, aggregation, charge variants and glycan profile of the recombinant antibodies. Cell density and viability were measured using the trypan blue exclusion method with Cedex Bio Analyzer (Roche Diagnostics GmbH, Mannheim, Germany). Culture pH was measured using ABL80 Blood/Gas Analyzer (Radiometer, Denmark).
(§3) Antibody titer was analyzed using a mAb-specific reverse-phase high-performance liquid chromatography (HPLC) or analytical Protein A HPLC method. Multiple product quality attributes were analyzed on harvested cell-culture fluid (HCCF) after a Protein A chromatography step. Analysis of HMW species was performed by size-exclusion chromatography, analysis of charge variants was performed by ion exchange chromatography, and analysis of N-glycan was performed by ultra-performance liquid chromatography (UPLC) with 2-aminobenzamide (2-AB) labeling.
(§4) Data generated from all 6 blocks for all tested components (excluding component 9 and 12) were transformed using a dimensionless number, which is termed as Concentration Impact Factor, and abbreviated as Cf. Cf provides a score value for impact of change in component's concentration on desired response when tested at different concentrations. The equation used to transform data to calculate Cf is described below as equation 1. The first part of the equation represents a directional vector, which determines whether increasing the component concentration from a lower value to a higher value results in a positive or negative response for the measure attribute. The second part of the equation then calculates the magnitude of that change as the concentration changes from low to high.
(§5) wherein, • Cf. Concentration impact factor (dimensionless number) • H: Response for a measured attribute when component is added at a higher concentration • L: Response for a measured attribute when component is added at a lower concentration • C: Response for a measured attribute […] • hc: high concentration (mM) of the component added • lc: low concentration (mM) of the component added

[2] = test system: recombinant CHO cell line expressing mAb C; assay: as above; conditions: mAb C cell line (Table 4, untitled)
Procedure: as §1, §2, §3, §4, §5

[3] = test system: recombinant CHO cell line expressing mAb A; assay: as above; conditions: for Relative IVCC (% to Control): added day 6, harvest day 10; for Relative IVCC (% to Control) / Relative Titer (% to Control) / Relative Viability (% to Control): mAb A cell line
Procedure: as §1, §2, §3, §4, §5

[4] = test system: recombinant CHO cell lines expressing monoclonal antibodies (mAb A, mAb B, or mAb C); assay: 10-day fed-batch assay of eighteen components (Example 1), statements for all cell lines; conditions: among the 18 tested components
Procedure: Experiment was executed by dividing into 6-blocks. In each experiment block, 3 unique test components were assessed and control conditions with no added test component were included for all three cell lines. Cells were cultured in Merck proprietary chemically defined media in increasing volume to obtain sufficient number of cells for inoculation. For cell lines expressing mAb A and mAb B, cells were seeded at 0.5×10^6 cells per mL into Merck proprietary chemically defined production medium in two 1 L Erlenmeyer flasks at a final volume of 250 mL in each flask. […]
as §2, with “Denmark). Cell culture metabolites were measured using RX Imola (Randox Laboratories Ltd. Crumlin, UK) and osmolality was measured using a micro-Osmometer 2020 (Advanced Instruments, Norwood, MA). […]” for “Denmark).”

[5] = test system: recombinant CHO cell lines expressing monoclonal antibodies (mAb A, mAb B, or mAb C); assay: 10-day fed-batch assay with GMP (Example 2), statements for all cell lines
Procedure: (§6) Cells were cultured in Merck proprietary chemically defined media in increasing volume to obtain sufficient number of cells for inoculation. For cell lines expressing mAb A and mAb B, cells were seeded at 0.5×10^6 cells per mL into Merck proprietary chemically defined production medium in two 1 L Erlenmeyer flasks at a final volume of 250 mL in each flask. For cell line expressing mAb C, cells were seeded at 1.0×10^6 cells per mL into production medium in two 1 L Erlenmeyer flasks at a final volume of 250 mL in each flask. Cells were incubated at 36.5° C., with agitation at 100 rpm, in presence of 5% CO2, and humidity ≥70%. Merck proprietary chemically defined nutrient feed media were added to all the cultures on day 3, day 6, and day 8. On Day 6, cells from both 1 L flasks for each cell line were pooled and then aliquoted in 125 mL Erlenmeyer flasks with 30 mL working volume, respectively. A 200 mM stock solution of GMP was prepared by adding Guanosine 5′-monophosphate disodium salt hydrate (Sigma Aldrich, St. Louis, MO) in purified water. After the cells were aliquoted in separate 125 mL test flasks on day 6, GMP was added to the cultures at final concentration of 1 mM or 10 mM. No change in pH and osmolality was observed as a result of the GMP addition. A control condition with no added GMP was also created for each cell line. All conditions were run with two replicates. All cultures were harvested on day 10.
as §2, with “variants,” for “variants”, “GMP” for “added components”, “titer,” for “titer, aggregation, charge variants”, “Denmark). Cell culture metabolites were measured using RX Imola (Randox Laboratories Ltd. Crumlin, UK) and osmolality was measured using a micro-Osmometer 2020 (Advanced Instruments, Norwood, MA).” for “Denmark).”
as §3

[6] = test system: recombinant CHO cell line expressing mAb B; assay: 10-day fed-batch assay with GMP (Example 2)
Procedure: as §6
as §2, with “variants,” for “variants”, “GMP” for “added components”, “titer,” for “titer, aggregation, charge variants”, “Denmark). Cell culture metabolites were measured using RX Imola (Randox Laboratories Ltd. Crumlin, UK) and osmolality was measured using a micro-Osmometer 2020 (Advanced Instruments, Norwood, MA).” for “Denmark).”
as §3

[7] = test system: recombinant CHO cell line expressing mAb C; assay: 10-day fed-batch assay with GMP (Example 2)
Procedure: as §6
as §2, with “variants,” for “variants”, “GMP” for “added components”, “titer,” for “titer, aggregation, charge variants”, “Denmark). Cell culture metabolites were measured using RX Imola (Randox Laboratories Ltd. Crumlin, UK) and osmolality was measured using a micro-Osmometer 2020 (Advanced Instruments, Norwood, MA).” for “Denmark).”
as §3

[8] = test system: recombinant CHO cell line expressing mAb A; assay: 10-day fed-batch assay with GMP (Example 2)
Procedure: as §6
as §2, with “variants,” for “variants”, “GMP” for “added components”, “titer,” for “titer, aggregation, charge variants”, “Denmark). Cell culture metabolites were measured using RX Imola (Randox Laboratories Ltd. Crumlin, UK) and osmolality was measured using a micro-Osmometer 2020 (Advanced Instruments, Norwood, MA).” for “Denmark).”
as §3

[9] = Higher Concentration per Table 1
[10] = Lower Concentration per Table 1

SMILES: Nc1nc2c(ncn2[C@@H]2O[C@H](COP(=O)(O)O)[C@@H](O)[C@H]2O)c(=O)[nH]1 [Component 6, Guanosine 5′-monophosphate]
- Relative IVCC (% to Control) [1, 9]: 90.77 % to Control
- Relative Titer (% to Control) [1, 9]: 94.86 % to Control
- Relative Viability (% to Control) [1, 9]: 95.28 % to Control
- Relative IVCC (% to Control) [1, 10]: 96.14 % to Control
- Relative Titer (% to Control) [1, 10]: 100.81 % to Control
- Relative Viability (% to Control) [1, 10]: 100.77 % to Control
- Relative IVCC (% to Control) [2, 9]: 79.88 % to Control
- Relative Titer (% to Control) [2, 9]: 103.8 % to Control
- Relative Viability (% to Control) [2, 9]: 87.81 % to Control
- Relative IVCC (% to Control) [2, 10]: 97.24 % to Control
- Relative Titer (% to Control) [2, 10]: 102.19 % to Control
- Relative Viability (% to Control) [2, 10]: 99.25 % to Control
- Relative IVCC (% to Control) ([3]; Higher Concentration per Table 1 (GMP 10 mM)): 95.08 % to Control
- Relative Titer (% to Control) [3, 9]: 96.14 % to Control
- Relative Viability (% to Control) [3, 9]: 91.8 % to Control
- Relative IVCC (% to Control) ([3]; Lower Concentration per Table 1 (GMP 1 mM)): 100.61 % to Control
- Relative Titer (% to Control) [3, 10]: 101.88 % to Control
- Relative Viability (% to Control) [3, 10]: 96.75 % to Control
- dose dependent change in Man 5 peak (Cf) ([3]; mAb A, lower vs higher concentration): largest dose dependent decrease in Man 5 peak
- overall HMG content, in particular Man 5 species, of the monoclonal antibodies produced [4]: reduced
- higher order mannose structures [5]: slight decrease
- impact on cell culture parameters ([5]; GMP 1 mM): no impact
- HMG content on the recombinant antibodies ([5]; GMP 1 mM and 10 mM): dose dependent decrease
- high mannose ([5]; GMP 10 mM, all cell lines): large decreases
- Man 5 content ([5]; mAb A, mAb B, and mAb C, listed as GMP): major high mannose species downregulated; also recorded: dose dependent decrease
- cell culture performance parameters (IVCC, final viability, titer, ammonia, lactate) ([5]; three CHO cell lines): did not significantly affect
- Cumulative Titer ([6]; GMP 1 mM): 314 mg/L
- Final viability ([6]; GMP 1 mM): 86.9%
- IVCC ([6]; GMP 1 mM): 52.7 10^6 cells · Day/mL
- Cumulative Titer ([6]; GMP 10 mM): 296 mg/L
- Final viability ([6]; GMP 10 mM): 82.1%
- IVCC ([6]; GMP 10 mM): 49.7 10^6 cells · Day/mL
- cell growth ([6]; GMP 10 mM): slight decrease
- Man 5 (HMG level, value relative to control) ([6]; GMP final concentration 1 mM): 1.02
- Total HMG (value relative to control) ([6]; GMP final concentration 1 mM): 1.01
- Man 5 (HMG level, value relative to control) ([6]; GMP final concentration 10 mM): 0.91
- Total HMG (value relative to control) ([6]; GMP final concentration 10 mM): 0.90
- Cumulative Titer ([7]; GMP 1 mM): 690 mg/L
- Final viability ([7]; GMP 1 mM): 98.5%
- IVCC ([7]; GMP 1 mM): 86.5 10^6 cells · Day/mL
- high mannose glycans ([7]; GMP 1 mM): slight decrease
- Cumulative Titer ([7]; GMP 10 mM): 701 mg/L
- Final viability ([7]; GMP 10 mM): 86.3%
- IVCC ([7]; GMP 10 mM): 71.1 10^6 cells · Day/mL
- cell growth ([7]; GMP 10 mM): considerable decrease
- Man 5 (HMG level, value relative to control) ([7]; GMP final concentration 1 mM): 0.98
- Man 5 (HMG level, value relative to control) ([7]; GMP final concentration 10 mM): 0.68
- Cumulative Titer ([8]; GMP 1 mM): 158 mg/L
- Final viability ([8]; GMP 1 mM): 85.5%
- IVCC ([8]; GMP 1 mM): 46.4 10^6 cells · Day/mL
- high mannose glycans ([8]; GMP 1 mM): slight decrease
- Cumulative Titer ([8]; GMP 10 mM): 167 mg/L
- Final viability ([8]; GMP 10 mM): 77.4%
- IVCC ([8]; GMP 10 mM): 44.3 10^6 cells · Day/mL
- cell growth ([8]; GMP 10 mM): slight decrease
- Man 5 (HMG level, value relative to control) ([8]; GMP final concentration 1 mM): 0.97
- Total HMG (value relative to control) ([8]; GMP final concentration 1 mM): 0.96
- Man 5 (HMG level, value relative to control) ([8]; GMP final concentration 10 mM): 0.76
- Total HMG (value relative to control) ([8]; GMP final concentration 10 mM): 0.76
